Where “and” joins values, the source holds several entries; their conditions need not be identical. Equal entries are not always repeated.
Tested on: APP/PS1 mice
Assay: Morris water maze test (Fig 6k-q)
Format: in vivo, mouse
Set-up: Morris water maze learning curve (Figure 6k) / Morris water maze learning curve (Figure 6k), group mean (평균) / Morris water maze, Non-Target quadrant (Figure 6l) / Morris water maze, Target quadrant (Figure 6l) / Morris water maze, A0 (Target quadrant) (Figure 6m) / Morris water maze, quadrant A1 (Figure 6m) / Morris water maze, quadrant A2 (Figure 6m) / Morris water maze, quadrant A3 (Figure 6m): unit not given here
Details: for Morris water maze learning curve (Figure 6k), group mean (평균): AD/N-AS group mean; for Morris water maze learning curve (Figure 6k): AD/N-AS individual animals
Method: Transgenic mouse lines over-expressing the hAPP695swe (APP) and presenilin-1M146V (PS1) mutations were originated from GlaxoSmithKline (Harlow, UK)[32] and maintained as described previously. We purchased 5×FAD mice from Jackson Labs (Stock number. 34840-JAX). Because APP/PS1 and 5xFAD mice show sex differences in disease progression, we used only male mice. To examine possible therapeutic effect of N-AS and aspirin in APP/PS1 mice, the N-AS (30 mg kg^−1, Sigma-Aldrich, 01912) was injected daily s.c. for 8 weeks to 7-months-old APP/PS1 mice until the age of 9 months, and aspirin (2 mg kg^−1, Sigma-Aldrich, A5376)[33] was administrated orally to 7-months-old APP/PS1 mice for 8 weeks. […] Block randomization method was used to allocate the animals to experimental groups. To eliminate the bias, we were blinded in experimental progress such as data collection and data analysis. Mice were housed at temperature of 22 °C and a 12 h day/12 h night cycle with free access to tap water and food pellets. All protocols were approved by the Kyungpook National University Institutional Animal Care and Use Committee. We performed behavioral studies to assess spatial learning and memory in the Morris water maze as previously described[11],[31]. Animals were given four trials per day for 10 days to learn the task. At day 11, animals were given a probe trial in which the platform was removed. Fear conditioning was conducted by previously described techniques. On the conditioning day, mice were individually placed into the conditioning chamber. After a 60 s exploratory period, a tone (10 kHz, 70 dB) was delivered for 10 s; this served as the conditioned stimulus (CS). The CS co-terminated with the unconditioned stimulus (US), a scrambled electrical footshock (0.3 mA, 1 s). The CS-US pairing was delivered twice at a 20 s intertrial interval. On day 2, each mouse was placed in the fear-conditioning chamber containing the same exact context, but with no administration of a CS or foot shock. Freezing was analyzed for 5 min. On day 3, a mouse was placed in a test chamber that was different from the conditioning chamber. After a 60 s exploratory period, the tone was presented for 60 s without the footshock. The rate of freezing response of mice was used to measure the fear memory. The open field test was used for locomotion and anxious behaviors as previously described. The open field box consisted of a square box. Each animal was placed in the box for 10 min. Overall activity in the box was measured, and the amount of time and distance traveled in the center arena was noted. After each trial, the test chambers were cleaned with a damp towel and distilled water followed by 70% alcohol. The light-dark test was used for assessing the anxiety-like behavior as previously described. One chamber was brightly illuminated, whereas the other chamber was dark. Mice were placed into the dark chamber and allowed to move freely between the two chambers with the door open for 10 min. The total number of transitions, latency to first enter the light chamber, distance traveled, and time spent in each chamber were recorded.

[1] = APP/PS1 + N-AS, individual animals

CCCCCCCCCCCCC/C=C/[C@@H](O)[C@H](CO)NC(C)=O [N-AS, N-((2S,3R,E)-1,3-Dihydroxyoctadec-4-en-2-yl)acetamide]
Morris water maze, A0 (Target quadrant) (Figure 6m) [1]: 14.5 and 35 and 17.5 and 31.5 and 19.5 and 29.5 and 37.5 and 7.5 and 9.5 and 20 and 10 and 18 and 24 and 10.5 and 30.5 and 43 | Morris water maze, Non-Target quadrant (Figure 6l) [1]: 15.1667 and 8.333 and 14.1667 and 9.5 and 13.5 and 10.1667 and 7.5 and 17.5 and 16.8333 and 13.3333 and 16.6667 and 14 and 12 and 16.5 and 9.833 and 5.667 | Morris water maze, Target quadrant (Figure 6l) [1]: 14.5 and 35 and 17.5 and 31.5 and 19.5 and 29.5 and 37.5 and 7.5 and 9.5 and 20 and 10 and 18 and 24 and 10.5 and 30.5 and 43 | Morris water maze, quadrant A1 (Figure 6m) [1]: 17.5 and 9 (2×) and 20 and 6.5 (2×) and 15.5 (2×) and 32 and 21 and 8.5 and 28 and 14 and 22 and 6 and 3 | Morris water maze, quadrant A2 (Figure 6m) [1]: 16 and 9.5 and 14 and 9 and 21.5 and 19 and 2 and 2.5 and 10 and 15 (2×) and 13.5 and 11.5 and 21 and 19.5 and 7 | Morris water maze, quadrant A3 (Figure 6m) [1]: 12 and 6.5 (2×) and 8.5 and 13 and 10 and 5 (2×) and 18 and 19.5 and 16.5 and 7 (2×) and 14.5 and 9 and 4 | memory formation, Morris water maze (N-AS vs vehicle APP/PS1): largely protected from this defect | Morris water maze learning curve (Figure 6k), group mean (평균) (day 1): 42.2833 | Morris water maze learning curve (Figure 6k) (day 1): 60 and 38.125 and 47.875 and 37.75 and 40.875 and 47.75 and 32.5 and 22.875 and 46 and 29.25 and 55.625 | Morris water maze learning curve (Figure 6k), group mean (평균) (day 2): 36.025 | Morris water maze learning curve (Figure 6k) (day 2): 40.25 and 39.875 and 60 and 24.625 and 34.625 and 51 and 16.875 and 15.75 and 46.75 and 19.875 | Morris water maze learning curve (Figure 6k), group mean (평균) (day 3): 36.0583 | Morris water maze learning curve (Figure 6k) (day 3): 37.5 and 38.875 and 60 and 43.625 and 20.125 and 43.25 and 17.375 and 42 and 34.75 and 24.875 | Morris water maze learning curve (Figure 6k), group mean (평균) (day 4): 34.2583 | Morris water maze learning curve (Figure 6k) (day 4): 37.125 and 35.25 and 60 and 49.75 and 25.875 and 12 and 37.5 and 8.375 and 36.125 | Morris water maze learning curve (Figure 6k), group mean (평균) (day 5): 34.3417 | Morris water maze learning curve (Figure 6k) (day 5): 43.125 and 17.125 and 55.5 and 30.25 and 26.375 and 55.25 and 23.875 and 38.5 and 13.5 and 31.125 | Morris water maze learning curve (Figure 6k), group mean (평균) (day 6): 32.3333 | Morris water maze learning curve (Figure 6k) (day 6): 28.5 and 25 and 50.375 and 17.375 and 47.125 and 52.75 and 16.25 and 60 and 13.25 and 35.25 | Morris water maze learning curve (Figure 6k), group mean (평균) (day 7): 30.9667 | Morris water maze learning curve (Figure 6k) (day 7): 47.875 and 26.5 and 46.5 and 22.75 and 19 and 33.75 and 27.5 and 50.25 and 12.375 and 43 | Morris water maze learning curve (Figure 6k), group mean (평균) (day 8): 23.3417 | Morris water maze learning curve (Figure 6k) (day 8): 37.125 and 17.75 and 27.875 and 22.625 and 16.625 and 24.375 and 5.5 and 25.125 and 14.875 and 41 | Morris water maze learning curve (Figure 6k), group mean (평균) (day 9): 22.7083 | Morris water maze learning curve (Figure 6k) (day 9): 32.25 and 21.375 and 17.5 and 11.125 and 27.125 and 18.875 and 12.75 and 21.625 and 50.375 and 15.875 | Morris water maze learning curve (Figure 6k), group mean (평균) (day 10): 21.95 | Morris water maze learning curve (Figure 6k) (day 10): 23.625 and 39.125 and 23.5 and 13 and 13.75 and 40.75 and 22.25 and 36.625 and 14.75 and 17.75
